Data published in patent US7541368B2, “Pyrazoles as inhibitors of tumor necrosis factor” (Aventis Pharmaceuticals Inc., priority 2003, dated 2009).

System: TNF-alpha release in THP-1 cells
Assay: LPS-induced TNF-alpha release in THP-1 cells
Format: cell-based
Details: Homo sapiens, THP-1, LPS-stimulated THP-1 cells; read-out: 50% inhibition in the LPS-induced TNF-alpha release in THP-1 cells assay at concentrations within the range
How it was run: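 Undifferentiated THP-1 monocytes (1×10^6 cells/ml, 1% FCS) preincubated 1 h at 37° C with compound (1×10^−9 to 1×10^−6 M, 0.3% DMSO), then stimulated with LPS (20 μg/ml) for 18 h. Supernatant TNF-alpha measured by sandwich ELISA (TMB read-out), interpolated from a log/log standard curve (0.125-16 ng/ml).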

| IC50 [nM] | SMILES |
| --- | --- |
| 10 to 500 | Cc1ccc(-n2nc(C(C)(C)C)cc2NC(=O)Nc2ccc(CC3CCN(C(=O)CCc4ccccc4)CC3)cc2)cc1 [Compound A354, 1-(5-tert-Butyl-2-p-tolyl-2H-pyrazol-3-yl)-3-{4-[1-(3-phenyl-propionyl)-piperidin-4-ylmethyl]-phenyl}-urea] |
| 10 to 500 | Cc1ccc(-n2nc(C(C)(C)C)cc2NC(=O)Nc2cccc(CC3CCN(C(=O)CCc4cccs4)CC3)c2)cc1 [Compound A83, 1-(5-tert-Butyl-2-p-tolyl-2H-pyrazol-3-yl)-3-{3-[1-(3-thiophen-2-yl-propionyl)-piperidin-4-ylmethyl]-phenyl}-urea] |
| 10 to 500 | Cc1ccc(-n2nc(C(C)(C)C)cc2NC(=O)Nc2cccc(CC3CCN(C(=O)c4nccc5ccccc45)CC3)c2)cc1 [Compound A13, 1-(5-tert-Butyl-2-p-tolyl-2H-pyrazol-3-yl)-3-{3-[1-(isoquinoline-1-carbonyl)-piperidin-4-ylmethyl]-phenyl}-urea] |
| 10 to 500 | COc1cccc(CC(=O)N2CCC(Cc3ccc(NC(=O)Nc4cc(C(C)(C)C)nn4-c4ccc(C)cc4)cc3)CC2)c1 [Compound A288, 1-(5-tert-Butyl-2-p-tolyl-2H-pyrazol-3-yl)-3-(4-{1-[2-(3-methoxy-phenyl)-acetyl]-piperidin-4-ylmethyl}-phenyl)-urea] |
| 10 to 500 | Cc1ccc(-n2nc(C(C)(C)C)cc2NC(=O)Nc2ccc(CC3CCN(C(=O)C4=Cc5occc5CC4)CC3)cc2)cc1 [Compound A1642, 1-(5-tert-Butyl-2-p-tolyl-2H-pyrazol-3-yl)-3-{4-[1-(4,5-dihydro-benzofuran-6-carbonyl)-piperidin-4-ylmethyl]-phenyl}-urea] |
| 10 to 500 | Cc1ccc(-n2nc(C(C)(C)C)cc2NC(=O)Nc2ccc(CC3CCN(C(=O)c4cc(C)c(C)o4)CC3)cc2)cc1 [Compound A298, 1-(5-tert-Butyl-2-p-tolyl-2H-pyrazol-3-yl)-3-{4-[1-(4,5-dimethyl-furan-2-carbonyl)-piperidin-4-ylmethyl]-phenyl}-urea] |
| 10 to 500 | COc1ccc(CC(=O)N2CCC(Cc3cccc(NC(=O)Nc4cc(C(C)(C)C)nn4-c4ccc(C)cc4)c3)CC2)cc1OC [Compound A69, 1-(5-tert-Butyl-2-p-tolyl-2H-pyrazol-3-yl)-3-(3-{1-[2-(3,4-dimethoxy-phenyl)-acetyl]-piperidin-4-ylmethyl}-phenyl)-urea] |
| 10 to 500 | Cc1ccc(-n2nc(C(C)(C)C)cc2NC(=O)Nc2ccc(CC3CCN(C(=O)c4ccc5cc[nH]c5c4)CC3)cc2)cc1 [Compound A362, 1-(5-tert-Butyl-2-p-tolyl-2H-pyrazol-3-yl)-3-{4-[1-(1H-indole-6-carbonyl)-piperidin-4-ylmethyl]-phenyl}-urea] |
| 10 to 500 | Cc1ccc(-n2nc(C(C)(C)C)cc2NC(=O)Nc2ccc(CC3CCN(C(=O)c4ccc(OC(F)F)cc4)CC3)cc2)cc1 [Compound A306, 1-(5-tert-Butyl-2-p-tolyl-2H-pyrazol-3-yl)-3-{4-[1-(4-difluoromethoxy-benzoyl)-piperidin-4-ylmethyl]-phenyl}-urea] |
| 10 to 500 | Cc1ccc(-n2nc(C(C)(C)C)cc2NC(=O)Nc2ccc(CC3CCN(C(=O)C4(C)CC4)CC3)cc2)cc1 [Compound A206, 1-(5-tert-Butyl-2-p-tolyl-2H-pyrazol-3-yl)-3-{4-[1-(1-methyl-cyclopropanecarbonyl)-piperidin-4-ylmethyl]-phenyl}-urea] |
| 10 to 500 | Cc1ccc(-n2nc(C(C)(C)C)cc2NC(=O)Nc2ccc(CC3CCN(C(=O)c4ccc5ncsc5c4)CC3)cc2)cc1 [Compound A338, 1-{4-[1-(Benzothiazole-6-carbonyl)-piperidin-4-ylmethyl]-phenyl}-3-(5-tert-butyl-2-p-tolyl-2H-pyrazol-3-yl)-urea] |
| 10 to 500 | Cc1ccc(-n2nc(C(C)(C)C)cc2NC(=O)Nc2ccc(CC3CCN(C(=O)c4cnc5ccccc5n4)CC3)cc2)cc1 [Compound A257, 1-(5-tert-Butyl-2-p-tolyl-2H-pyrazol-3-yl)-3-{4-[1-(quinoxaline-2-carbonyl)-piperidin-4-ylmethyl]-phenyl}-urea] |
| 10 to 500 | Cc1ccc(-n2nc(C(C)(C)C)cc2NC(=O)Nc2ccc(CC3CCN(C(=O)Nc4ccc5c(c4)OCO5)CC3)cc2)cc1 [Compound A429, 4-{4-[3-(5-tert-Butyl-2-p-tolyl-2H-pyrazol-3-yl)-ureido]-benzyl}-piperidine-1-carboxylic acid benzo[1,3]dioxol-5-ylamide] |
| 10 to 500 | Cc1ccc(-n2nc(C(C)(C)C)cc2NC(=O)Nc2cccc(CC3CCN(C(=O)c4ccoc4C)CC3)c2)cc1 [Compound A52, 1-(5-tert-Butyl-2-p-tolyl-2H-pyrazol-3-yl)-3-{3-[1-(2-methyl-furan-3-carbonyl)-piperidin-4-ylmethyl]-phenyl}-urea] |
| 10 to 500 | COC(=O)c1ccccc1S(=O)(=O)N1CCC(Cc2ccc(NC(=O)Nc3cc(C(C)(C)C)nn3-c3ccc(C)cc3)cc2)CC1 [Compound A609, 2-(4-{4-[3-(5-tert-Butyl-2-p-tolyl-2H-pyrazol-3-yl)-ureido]-benzyl}-piperidine-1-sulfonyl)-benzoic acid methyl ester] |
| 10 to 500 | Cc1ccc(-n2nc(C(C)(C)C)cc2NC(=O)Nc2ccc(CC3CCN(C(=O)c4cnc5ccccc5c4)CC3)cc2)cc1 [Compound A384, 1-(5-tert-Butyl-2-p-tolyl-2H-pyrazol-3-yl)-3-{4-[1-(quinoline-3-carbonyl)-piperidin-4-ylmethyl]-phenyl}-urea] |

The next lines start with the compound.

| SMILES | IC50 [nM] |
| --- | --- |
| Cc1ccc(-n2nc(C(C)(C)C)cc2NC(=O)Nc2ccc(CC3CCN(C(=O)c4ccnc5ccccc45)CC3)cc2)cc1 [Compound A385, 1-(5-tert-Butyl-2-p-tolyl-2H-pyrazol-3-yl)-3-{4-[1-(quinoline-4-carbonyl)-piperidin-4-ylmethyl]-phenyl}-urea] | 10 to 500 |
| Cc1ccc(-n2nc(C(C)(C)C)cc2NC(=O)Nc2cccc(CC3CC4CCC(C3)N4C(=O)Cc3cn(C)c4ccccc34)c2)cc1 (centres unmarked) [Compound A641, 1-(5-tert-Butyl-2-p-tolyl-2H-pyrazol-3-yl)-3-(3-{8-[2-(1-methyl-1H-indol-3-yl)-acetyl]-8-aza-bicyclo[3.2.1]oct-3-ylmethyl}-phenyl)-urea] | 10 to 500 |
| Cc1ccc(-n2nc(C(C)(C)C)cc2NC(=O)Nc2ccc(CC3CCN(C(=O)c4cc(C)oc4C)CC3)cc2)cc1 [Compound A222, 1-(5-tert-Butyl-2-p-tolyl-2H-pyrazol-3-yl)-3-{4-[1-(2,5-dimethyl-furan-3-carbonyl)-piperidin-4-ylmethyl]-phenyl}-urea] | 10 to 500 |
| Cc1ccc(-n2nc(C(C)(C)C)cc2NC(=O)Nc2ccc(CC3CCN(C(=O)c4ccc(N)nc4)CC3)cc2)cc1 [Compound A331A, 1-{4-[1-(6-Amino-pyridine-3-carbonyl)-piperidin-4-ylmethyl]-phenyl}-3-(5-tert-butyl-2-p-tolyl-2H-pyrazol-3-yl)-urea] | 10 to 500 |
| CCCCC#CC(=O)N1CCC(Cc2ccc(NC(=O)Nc3cc(C(C)(C)C)nn3-c3ccc(C)cc3)cc2)CC1 [Compound A238, 1-(5-tert-Butyl-2-p-tolyl-2H-pyrazol-3-yl)-3-[4-(1-hept-2-ynoyl-piperidin-4-ylmethyl)-phenyl]-urea] | 10 to 500 |
| Cc1ccc(-n2nc(C(C)(C)C)cc2NC(=O)Nc2cccc(CC3CCN(C(=O)c4ccc(N)nc4)CC3)c2)cc1 [Compound A144, 1-{3-[1-(6-Amino-pyridine-3-carbonyl)-piperidin-4-ylmethyl]-phenyl}-3-(5-tert-butyl-2-p-tolyl-2H-pyrazol-3-yl)-urea] | 10 to 500 |
| Cc1ccc(-n2nc(C(C)(C)C)cc2NC(=O)Nc2cccc(CC3CCN(C(=O)c4ccc5ccccc5n4)CC3)c2)cc1 [Compound A184, 1-(5-tert-Butyl-2-p-tolyl-2H-pyrazol-3-yl)-3-{3-[1-(quinoline-2-carbonyl)-piperidin-4-ylmethyl]-phenyl}-urea] | 10 to 500 |
| Cc1ccc(-n2nc(C(C)(C)C)cc2NC(=O)Nc2cccc(CC3CC4CCC(C3)N4C(=O)Cc3ccc(F)cc3F)c2)cc1 (centres unmarked) [Compound A720, 1-(5-tert-Butyl-2-p-tolyl-2H-pyrazol-3-yl)-3-(3-{8-[2-(2,4-difluoro-phenyl)-acetyl]-8-aza-bicyclo[3.2.1]oct-3-ylmethyl}-phenyl)-urea] | 10 to 500 |
| Cc1ccc(-n2nc(C(C)(C)C)cc2NC(=O)Nc2cccc(CC3CCN(C(=O)c4csnn4)CC3)c2)cc1 [Compound A6, 1-(5-tert-Butyl-2-p-tolyl-2H-pyrazol-3-yl)-3-{3-[1-([1,2,3]thiadiazole-4-carbonyl)-piperidin-4-ylmethyl]-phenyl}-urea] | 10 to 500 |
| COc1ccc(CC(=O)N2CCC(Cc3ccc(NC(=O)Nc4cc(C(C)(C)C)nn4-c4ccc(C)cc4)cc3)CC2)cc1 [Compound A319, 1-(5-tert-Butyl-2-p-tolyl-2H-pyrazol-3-yl)-3-(4-{1-[2-(4-methoxy-phenyl)-acetyl]-piperidin-4-ylmethyl}-phenyl)-urea] | 10 to 500 |
| Cc1ccc(-n2nc(C(C)(C)C)cc2NC(=O)Nc2cccc(CC3CCN(C(=O)c4occc4C)CC3)c2)cc1 [Compound A95, 1-(5-tert-Butyl-2-p-tolyl-2H-pyrazol-3-yl)-3-{3-[1-(3-methyl-furan-2-carbonyl)-piperidin-4-ylmethyl]-phenyl}-urea] | 10 to 500 |
| COc1cc(OC)c(C(=O)N2CCC(Cc3cccc(NC(=O)Nc4cc(C(C)(C)C)nn4-c4ccc(C)cc4)c3)CC2)c(OC)c1 [Compound A24, 1-(5-tert-Butyl-2-p-tolyl-2H-pyrazol-3-yl)-3-{3-[1-(2,4,6-trimethoxy-benzoyl)-piperidin-4-ylmethyl]-phenyl}-urea] | 10 to 500 |
| COc1cccc(CC(=O)N2C3CCC2CC(Cc2ccc(NC(=O)Nc4cc(C(C)(C)C)nn4-c4ccc(C)cc4)cc2)C3)c1OC (centres unmarked) [Compound A1312, 1-(5-tert-Butyl-2-p-tolyl-2H-pyrazol-3-yl)-3-(4-{8-[2-(2,3-dimethoxy-phenyl)-acetyl]-8-aza-bicyclo[3.2.1]oct-3-ylmethyl}-phenyl)-urea] | 10 to 500 |
